Measured values published in patent publication EP0678293A2, “Composition containing pyridoxine ester, process for the preparation and use thereof” (F. HOFFMANN-LA ROCHE AG, priority 1994, dated 1995).
Each block holds one molecule with its values, some of them ahead of it.

Experiments:
[1] = cited from earlier work; for Löslichkeit in Fetten: Kummerow, J.Am Oil Chem. Soc. 33 1956, 116
[2] = direct use in ointments, creams and other skin preparations; no test described; cited from earlier work
[3] = Solubility of pyridoxine tripropionate in vegetable oil / lipophilic phases
Description: 50 Gew% Pyridoxintripropionat werden vorgelegt und in 50 Gew% Pflanzenöl unter starkem Rühren gelöst.

Molecule: Cc1ncc(CO)c(CO)c1O.Cl [Pyridoxin-hydrochlorid]
Löslichkeit in unpolaren Flüssigkeiten ([1]; in unpolaren Flüssigkeiten, background statement): praktisch unlöslich

Molecule: CC(=O)OCc1cnc(C)c(OC(C)=O)c1COC(C)=O [Pyridoxintriacetat]
Löslichkeit in Fetten ([1]; Sakuragi): beinahe unlöslich

Molecule: CCCCCCCCCCCCCCCC(=O)OCc1cnc(C)c(OC(=O)CCCCCCCCCCCCCCC)c1COC(=O)CCCCCCCCCCCCCCC [Pyridoxintripalmitat]
Löslichkeit in Olivenöl ([1]; bei 3 °C in Olivenöl, Sakuragi, Kummerow 1956): 0,1%

Lösung in Pflanzenöl ([3]; 50 Gew% Pyridoxintripropionat in 50 Gew% Pflanzenöl, dissolved with vigorous stirring): homogene Lösung
löslich in Pflanzenöl ([3]; in Pflanzenöl): ≤ 50 Gew.%
Molecule: CCC(=O)OCc1cnc(C)c(OC(=O)CC)c1COC(=O)CC [Pyridoxintripropionat]
Löslichkeit in Fetten ([1]; Sakuragi): beinahe unlöslich
Vitamin B₆ Wirksamkeit [2]: volle

Molecule: Pyridoxinoctanoat
Löslichkeit in Pflanzenölen ([1]; in Pflanzenölen, Sakuragi, Kummerow 1956): ≤ 1%
